{
  "source": "a melting point compilation (Tetko et al.)",
  "data": [
    {"units": {"melting point": "°C"}, "values": [
      {"smiles": "CS(=O)(=O)c1ccc(N)c(C(=O)O)c1", "melting point": "239 to 241"},
      {"smiles": "COc1ccc(S(=O)(=O)Cl)cc1CC(=O)O", "melting point": "149 to 151"},
      {"smiles": "Cc1cc(Br)cc(Cl)c1C(=O)O", "melting point": "154 to 156"},
      {"smiles": "NS(=O)(=O)c1cnc(Cl)s1", "melting point": "128 to 130"},
      {"smiles": "O=S(=O)(NCCBr)c1ccccc1", "melting point": "54 to 56"},
      {"smiles": "CNCc1cccc(O)c1", "melting point": "144 to 146"},
      {"smiles": "CC(C)CC(CNC(=O)OC(C)(C)C)C(=O)O", "note": "(stereo not drawn)", "melting point": "76 to 78"},
      {"smiles": "COc1cc2c(cc1OC)C(c1ccccc1)N(C(=O)CCl)CC2", "note": "(stereo not drawn)", "melting point": "218 to 222"},
      {"smiles": "COC(=O)CNc1ncc(C)cc1[N+](=O)[O-]", "melting point": "107 to 109"},
      {"smiles": "CC1CCN(S(=O)(=O)c2ccc(C(=O)O)cc2)CC1", "melting point": "180 to 182"},
      {"smiles": "COC(=O)c1ccncc1O", "melting point": "149 to 151"},
      {"smiles": "NC(Cn1cccn1)=NO", "melting point": "80 to 82"},
      {"smiles": "N#Cc1ccc(-c2cnc(CCl)o2)cc1", "melting point": "124 to 126"},
      {"smiles": "CCC(C)NS(=O)(=O)c1ccc(C(=O)O)cc1", "note": "(stereo not drawn)", "melting point": "219 to 221"},
      {"smiles": "Cc1cc(=O)oc2ccc(OCC(=O)O)cc12", "melting point": "153 to 155"},
      {"smiles": "NC(=O)c1cccnc1Sc1ccc(C(=O)O)cc1", "melting point": "257 to 259"},
      {"smiles": "c1ccc(CN2CCNc3ccccc32)cc1", "melting point": "44 to 46"},
      {"smiles": "CNC(=O)Cc1noc(CCl)n1", "melting point": "89 to 91"},
      {"smiles": "O=C(O)c1ccc2c(=O)n(-c3ccc(F)cc3)c(=O)[nH]c2c1", "melting point": "397 to 399"},
      {"smiles": "N#Cc1cc(N)cnc1N", "melting point": "129 to 131"},
      {"smiles": "CC(CSc1ccccc1)C(=O)O", "note": "(stereo not drawn)", "melting point": "40 to 42"},
      {"smiles": "CNCc1cn(C)c(=O)n(C)c1=O", "melting point": "128 to 130"},
      {"smiles": "COC(=O)c1ccc(C(=O)c2cc[nH]c2)cc1", "melting point": "159 to 161"},
      {"smiles": "Nn1c(=O)[nH]c2ccccc2c1=O", "melting point": "297 to 299"},
      {"smiles": "Nc1cc(N2CCCS2(=O)=O)ccc1O", "melting point": "134 to 136"},
      {"smiles": "COc1ccc2cc(C=CC#N)ccc2c1", "melting point": "124 to 126"},
      {"smiles": "O=Cc1cc(Cl)cc2c1OCC2", "melting point": "85 to 87"},
      {"smiles": "O=C(O)C1CC(=O)N(c2ccc(Cl)c(F)c2)C1", "note": "(stereo not drawn)", "melting point": "149 to 151"},
      {"smiles": "COC(=O)C(N)c1ccc(OC)cc1", "note": "(stereo not drawn)", "melting point": "59 to 61"},
      {"smiles": "O=C(O)c1ccc(-c2ccc(F)cc2)o1", "melting point": "193 to 195"},
      {"smiles": "NCc1cccc(N2CCOC2=O)c1", "melting point": "93 to 95"},
      {"smiles": "Cc1nn(Cc2ccccc2)c(Cl)c1CCl", "melting point": "53 to 55"},
      {"smiles": "COCc1nc(OC)c2c(C)c(C(=O)O)sc2n1", "melting point": "188 to 190"},
      {"smiles": "O=C(O)[C@H](Cc1ccccc1)N1C(=O)c2ccccc2C1=O", "melting point": "179 to 181"},
      {"smiles": "CC(Cl)c1cn(-c2ccccc2)nn1", "note": "(stereo not drawn)", "melting point": "69 to 71"},
      {"smiles": "COc1cccc(C(N)=O)c1O", "melting point": "155 to 157"},
      {"smiles": "COc1cc(C)ccc1Oc1ccc(N)cn1", "melting point": "106 to 108"},
      {"smiles": "Cc1cc(=O)c(C(=O)O)n[nH]1", "melting point": "193 to 195"},
      {"smiles": "CCCOc1ccc(C(F)(F)F)cc1NC(=O)CCl", "melting point": "73 to 75"},
      {"smiles": "COc1ccc(CC(=O)O)cc1S(=O)(=O)Cl", "melting point": "166 to 168"},
      {"smiles": "Nc1ncn(-c2ccccc2)n1", "melting point": "146 to 148"},
      {"smiles": "CC(=O)c1ccc(N2CCOC2=O)cc1", "melting point": "149 to 151"},
      {"smiles": "CC(=O)c1cncs1", "melting point": "64 to 66"},
      {"smiles": "COc1ccc(S(N)(=O)=O)cc1NC(C)=O", "melting point": "217 to 219"},
      {"smiles": "Nn1cncn1", "melting point": "64 to 66"},
      {"smiles": "Nc1ccc(F)c(NS(=O)(=O)c2ccccc2)c1", "melting point": "143 to 145"},
      {"smiles": "CS(=O)(=O)N1CCCc2cc(C(=O)CCl)ccc21", "melting point": "118 to 120"},
      {"smiles": "O=Cc1ccc(OCc2cccc(F)c2)cc1", "melting point": "45 to 47"},
      {"smiles": "CNCc1nc2ccccc2s1", "melting point": "30 to 34"},
      {"smiles": "CC(C)(C)OC(=O)NC(C(=O)O)C1CCCCC1", "note": "(stereo not drawn)", "melting point": "163 to 165"},
      {"smiles": "O=C(O)c1cc2cc(F)ccc2s1", "melting point": "207 to 209"},
      {"smiles": "Brc1nnc(Br)s1", "melting point": "104 to 106"},
      {"smiles": "CCC(=O)NNC(=O)C(C)Cl", "note": "(stereo not drawn)", "melting point": "157 to 159"},
      {"smiles": "CC(O)C1CCNCC1", "note": "(stereo not drawn)", "melting point": "68 to 70"},
      {"smiles": "Nc1ccc(-n2nccn2)cc1C(F)(F)F", "melting point": "84 to 86"},
      {"smiles": "O=C(O)c1cccc2c1CCCN2", "melting point": "142 to 144"},
      {"smiles": "Cc1ccc(-c2nc(N)sc2CC(=O)O)cc1C", "melting point": "265 to 267"},
      {"smiles": "O=C(O)CC(=O)NC1CC1", "melting point": "99 to 101"},
      {"smiles": "CC1CCCN1C(=O)c1cc2ccccc2cc1N", "note": "(stereo not drawn)", "melting point": "123 to 125"},
      {"smiles": "CN(C)C(=O)c1c[nH]c2ccccc12", "melting point": "234 to 236"},
      {"smiles": "CN1CCCNc2nc3ccccc3nc21", "melting point": "146 to 148"},
      {"smiles": "O=C1NCCc2c1ccc(Cl)c2Cl", "melting point": "200 to 202"},
      {"smiles": "N#Cc1cc(C(=O)O)c[nH]1", "melting point": "229 to 231"},
      {"smiles": "O=Cc1sc(=O)[nH]c1Cl", "melting point": "199 to 201"},
      {"smiles": "CC(C)(C(=O)O)c1ccc(N)cc1", "melting point": "165 to 167"},
      {"smiles": "Nc1ccc(S(N)(=O)=O)cc1[N+](=O)[O-]", "melting point": "206 to 208"},
      {"smiles": "ClCc1coc(-c2ccc(Cl)cc2)n1", "melting point": "91 to 93"},
      {"smiles": "Cc1[nH]c(C(=O)O)c(C)c1C(=O)OC(C)C", "melting point": "183 to 185"},
      {"smiles": "NNC(=O)c1nnc(-c2ccccc2)o1", "melting point": "173 to 175"},
      {"smiles": "CC(N)C(=O)NO", "note": "(stereo not drawn)", "melting point": "159 to 161"},
      {"smiles": "CC1CNC(=O)CC(C)C1", "note": "(stereo not drawn)", "melting point": "122 to 124"},
      {"smiles": "Cc1c(I)cccc1C(=O)O", "melting point": "113 to 115"},
      {"smiles": "CC(=O)c1ccc(SCC(=O)O)c(F)c1", "melting point": "140 to 142"}
    ]}
  ]
}
